# Laboratory results as given in patent publication US9326972B2, “Use of phenylmethimazoles, methimazole derivatives, and tautomeric cyclic thiones for the treatment of autoimmune/inflammatory diseases associated with toll-like receptor overexpression” (Ohio University, priority 2004, dated 2016).
# Assays:
# Stat1 [1] = assay: Stat1 phosphorylation in Influenza A infected FRTL-5 thyrocytes (Western blot); assay type: cell-based, rat
# Experimental: FIG. 6. Phenylmethimazole (C10) has no effect on the ability of Poly (I:C) or LPS to increase formation of the p50/p65 heterodimer complex of […] (A), but can inhibit the Influenza A induced activation of Stat1 phosphorylation in FRTL-5 thyrocytes (B). In (A), EMSA were performed using nuclear extracts from cells which were treated with nothing (none), Poly (I:C) (100 μg/ml), LPS (100 ng/ml), in the presence of DMSO, C10, or MMI for 6 hours. Probe was the NF-κβ consensus oligonucleotide. The p65/p50 and p50/p50 complexes are indicated and were identified as in FIG. 2B by antibody inhibition or supershifts of the p50 or p65 components of the induced complexes. In (B), cells were infected with Influenza A for 24 hours and then DMSO or C10 were added to the medium for 6 hours. In each, 25 μg of nuclear extracts were used in Western blots performed to detect Stat1 PY701. Blots were then stripped and reprobed for unphosphorylated Stat1. The first lane is a non infected control (−).
# Immunoprecipitation and Western Blot Analysis. Whole cell lysates were prepared in lysis buffer (10 mM Tris-HCl (pH 7.5), 150 mM NaCl, 1% NP-40) containing protease inhibitors. Nuclear extracts were prepared using the NE-PER extraction reagents with protease inhibitors stated below (Pierce Chemical Co., Rockford, Ill.). […]
# C57BL/6J mice = assay: LPS-induced endotoxic shock in C57BL/6J mice: survival and signs of shock; assay type: in vivo, mouse; settings: for Survival % of Control: Toxic Shock model, 10 animals, 1.5 days
# TLR4 signaled genes = assay: Gene expression in organs of LPS-treated mice (Northern, RT-PCR); assay type: in vivo, mouse
# iNOS = assay: LPS-induced iNOS mRNA in RAW 264.7 macrophages (RT-PCR); assay type: cell-based, mouse; settings: RAW 264.7, LPS 3 hours, C10 in DMSO or vehicle B
# Experimental: In macrophages NO production occurs as a result of LPS induction of iNOS (C. Bogdan, Nat Immunol, 2:907-16 (2001)) and is a process that depends on autocrine signaling by IFN-β. We used standard reverse transcriptase polymerase chain reaction to detect the inhibition of LPS induced iNOS transcription in the presence of C10 (FIG. 13A). The RAW 264.7 cells were treated with LPS in the presence of C10, its vehicle control, DMSO, or another excipient vehicle (compound B; see Table 8) for 3 hours. Table 8 establishes that C10 is effective in vivo in the mouse toxic shock model and in FRTL-5 cell assays in vitro when solubilized in water in the presence of the compound B excipient, i.e., water soluble forms of C10 are effective in both in vivo and in vitro just as C10 in DMSO. In the presence of DMSO control (FIG. 13A, lane 4) or vehicle B only (FIG. 13A, lane 5) little or no iNOS reduction was detected respectively when compared to LPS only (FIG. 13A lane 3).
# Standard reverse transcriptase PCR for INOS: RNA was isolated as described above and treated with DNAse a described above. […] of DNA free RNA was then reverse transcribed with the Advantage® RT-for PCR kit (BD Biosciences, Palo Alto, Calif.) in a total volume of 20 μl. Five μl of cDNA was then amplified using ExTaq™ DNA polymerase (Takara, Madison, Wis.) in a reaction volume of 25 μl. […]
# Stat1 [2] = assay: LPS-induced Stat1 phosphorylation in RAW 264.7 macrophages (immunoblot); assay type: cell-based, mouse
# horses [3] = assay: Peritonitis and endotoxic shock in horses induced by intraperitoneal caecal fluid; assay type: in vivo, horse
# horses [4] = assay: Horses operated to remove necrotic bowel; assay type: in vivo, horse; settings: 2 mg/kg C10 pre-op and post-op for three days, plus antibiotics
# Experimental: Effect of Phenylmethimazole (C10) on horses subjected to operative procedures to repair necrotic bowels: A group of animals were also subjected to an operative procedure that clamped vessels in a small portion of bowel. Within 2 days, bowel necrosis and peritonitis ensued. At that point animals were re-operated to remove the necrotic bowel and treated with 2 mg/kg C10 or DMSO alone pre-op and post-op for three days. […] Both groups had the same antibiotic therapy as used above.
# [5] = LPS 20 mg/kg i/p, drug i/p 30 min before LPS, 8 mice per group
smiles,measurement,setting,value
"Cn1c(-c2ccccc2)cnc1S [Compound C10, 5-Phenylmethimazole]",virus- or IFN-β-stimulated Stat1 phosphorylation (PY701),"Stat1 [1]; FRTL-5, Influenza A 24 hours then C10 6 hours",profound inhibitor
same,Stat1 serine phosphorylation at residue 727,"Stat1 [1]; FRTL-5, Influenza A virus 24 hours, 1 mM C10",reduce
same,survival / protection from death after LPS injection,"C57BL/6J mice; C10 1 mg/kg i/p 30 minutes before LPS 20 mg/kg, 36 hours",100%
same,survival (cases),C57BL/6J mice; C10 0.1 to 1 mg/kg administered 30 min to 12 hours after lethal LPS injection,100%
same,duration of survival observed,"C57BL/6J mice; C10-treated LPS mice, as long as observed",≥ 4 weeks
same,survival,"C57BL/6J mice; C10 daily doses of 0.1 or 1 mg/kg, 12 hours after challenge with LPS",100%
same,"Number of surviving mice, 6 hrs",C57BL/6J mice; [5],8
same,"Number of surviving mice, 12 hrs",C57BL/6J mice; [5],8
same,"Signs of shock at 12 hours, % of Animals",C57BL/6J mice; LPS-challenged mice,100 % of Animals
same,prevention of death vs freshly made C10 i.p. in DMSO,"C57BL/6J mice; LPS-induced toxic shock, oral excipient-solubilized C10 stored diluted at 4° C. for 8 weeks, 1 mg/kg",as effective
same,Survival % of Control,"C57BL/6J mice; 1 mg/kg, Ip diluted & stored in DMSO 1 wk",0%
same,Survival % of Control,"C57BL/6J mice; 1 mg/kg, Ip freshly diluted in DMSO",100%
same,Survival % of Control,"C57BL/6J mice; 1 mg/kg, Oral diluted & stored in excipient 6 wks",100%
same,Survival % of Control,"C57BL/6J mice; 1 mg/kg, Oral stored in excipient 1 week",100%
same,"pro-inflammatory cytokine gene expression (TNF α, IL-1β, IL-6, IL-12, IFN γ) in spleen, liver, lung, kidney, heart","TLR4 signaled genes; LPS injected mice at 24 hours, Northern",suppressed
same,"LPS-induced over-expression of IRF-1, IP-10 and MCP-1 RNA in organs","TLR4 signaled genes; LPS-treated mice of Table 5, Northern",suppressed
same,LPS-elevated COX-2 RNA levels,"TLR4 signaled genes; kidney, liver and lung, RT-PCR",completely suppressed and returned to normal
same,LPS-down-regulated COX-1 RNA levels,"TLR4 signaled genes; organs of LPS treated mice, RT-PCR",returned RNA levels to the normal levels
same,LPS-increased iNOS RNA levels,"TLR4 signaled genes; spleen, liver, lung, kidney, heart, RT-PCR",suppressed
same,LPS induced iNOS mRNA,iNOS,strong reduction
same,LPS induced Stat1 phosphorylation in cytoplasmic and nuclear fractions,Stat1 [2]; RAW 264.7,reduce
same,Stat1 serine phosphorylation at residue 727,"Stat1 [2]; RAW 264.7, LPS 500 ng/mL 3 hours, 0.5 mM C10",reduce
same,effectiveness of treatment,horses [3]; 10 animals so treated,100%
same,time to disappearance of signs of collapse or depression after the C-10 bolus,horses [3]; C10 2 mg/kg intravenous bolus at 12 hours,≤ 15 min
same,survival rate,"horses [3]; endotoxemia and shock due to septic peritonitis, intraperitoneal inoculation of intestinal flora",100%
same,recovery after operation to remove necrotic bowel,horses [4],full recovery in all cases
